Experimental data taken from patent US7829591B2, “Flavanone compound and uses thereof” (Pokka Corporation, priority 2003, dated 2010).

How the values were obtained:
Format in all cases: cell-based
[1] = test system: breast cancer cells (MCF-7); assay: Breast cancer cell proliferation-inhibition test; conditions: for Relative Value of Living Cells: 0.1 nM estradiol, Control 1 at 0 day = 1
Protocol: When breast cancer cells (MCF-7) are cultured, if estradiol (or 17β-estradiol) having a cell-proliferation accelerating action, is added thereto, the proliferation of breast cancer cells can be simply promoted in a short period. This phenomenon was utilized so as to examine the effect of each of Compounds 1 to 4 and the like on the proliferation inhibition of breast cancer cells. That is, first of all, each of Compounds 1 to 4 was diluted with dimethyl sulfoxide to prepare a sample solution. Thereafter, 2×10^3 of MCF-7 were inoculated in each well of a 96-well plate, and estradiol and the sample solution were added thereto after 4 hours. Estradiol was added to each compartment so that the final concentration of estradiol can be 0.1 nM, and the final concentration of the sample solution can be 0.2 μM, 2 μM, or 20 μM. After incubation for a predetermined period of time (three or five days), each of the media was replaced with a new medium, and an enzyme solution (Cell counting Kit-8: Wako) was added to the new medium in an amount of 10% of the new medium. After maintained the medium in an incubator at a temperature of 37° C. for two hours, the absorbance of the medium was determined at a wavelength of 450 nm (a reference wave length of 630 nm) by means of a spectrophotometer so as to quantify the number of living cells in each compartment.
As for the compartment whose incubation period is predetermined to be five days, on the third day of the incubation, the medium was replaced with a new medium, and thereafter, estradiol and a sample solution were added to the new medium, and the incubation was continued till fifth day. As for the compartment whose incubation period is predetermined to be 0 day, at four hours after the cells were inoculated, an enzyme solution was added to the medium. The medium was maintained in an incubator at a temperature of 37° C. for two hours, followed by determining the absorbance.
Instead of Compounds 1 to 4, eriodictyol was used to determine the absorbance according to a similar procedure to the above-mentioned one, and thus the number of living cells in each compartment was quantified. Furthermore, Control 1 to which neither estradiol nor a sample had been added was used to determine the absorbance according to a similar procedure to the above-mentioned one, and thus the number of living cells in each compartment was quantified, while Control 2 to which no sample had been added was used to determine the absorbance according to a similar procedure to the above-mentioned one, and thus the number of living cells in each compartment was quantified.
When it is assumed that the number of living cells of Control 1 as quantified after a zero-day incubation period is 1, the relative value of living cells as quantified in each of the runs mentioned above is shown in Table 2. Incidentally, each of values shown in Table 2 is the average value and standard deviation of values obtained from eight wells.

E. coli = assay: Antimicrobial activity test with Compounds 1 to 4
Protocol: (§1) That is, first of all, each of Compounds 1 to 4 was dissolved in 70% ethanol, and thereafter, standard agar media were prepared wherein the concentration of each of Compounds 1 to 4 was adjusted to be 0 ppm, 5 ppm, 10 ppm, 15 ppm, 20 ppm, or 50 ppm. Subsequently, these standard agar media were subjected to autoclave sterilization so as to prepare evaluation media, and each of the biological indicators was inoculated in each of these evaluation media. After the incubation of each of the bacteria, the number of the bacteria per a petri dish (CFU/petri dish) was determined.

Bacillus cereus (B. ce) = assay: Antimicrobial activity test with Compounds 1 to 4
Protocol: as §1

[2] = test system: Salmonella enteritidis (S. en; NBRC3313); assay: Antimicrobial activity test with Compounds 1 to 4
Protocol: as §1

[3] = test system: Staphylococcus aureus (Sta.); assay: Antimicrobial activity test with Compounds 1 to 4
Protocol: as §1

**Q.** For `CC(C)=CCC/C(C)=C/Cc1c([C@@H]2CC(=O)c3c(cc(O)c(CC=C(C)C)c3O)O2)ccc(O)c1O` [Compound 4, 5,7,3′,4′-tetrahydroxy-6-(3′″,3′″-dimethylallyl)-2′-C-geranylflavanone], which “Relative Value of Living Cells” value ([1]; 0.2 μM sample, after 3-days incubation) is on record?
**A.** Its value is 2.97 ± 0.27.

**Q.** And the “Relative Value of Living Cells” value ([1]; 0.2 μM sample, after 5-days incubation)?
**A.** The value was 6.30 ± 0.54.

**Q.** What about the “Relative Value of Living Cells” value ([1]; 0.2 μM sample, on 0-day incubation, mean ± SD of eight wells) of the same compound?
**A.** Its value is 0.99 ± 0.04.

**Q.** And the “Relative Value of Living Cells” value ([1]; 2 μM sample, after 3-days incubation)?
**A.** The value was 3.03 ± 0.30.

**Q.** And the “Relative Value of Living Cells” value ([1]; 2 μM sample, after 5-days incubation)?
**A.** The value was 6.41 ± 0.53.

**Q.** What about the “Relative Value of Living Cells” value ([1]; 2 μM sample, on 0-day incubation) of the same compound?
**A.** The value was 1.00 ± 0.07.

**Q.** And the “Relative Value of Living Cells” value ([1]; 20 μM sample, after 3-days incubation)?
**A.** The value was 1.27 ± 0.20.

**Q.** And the “Relative Value of Living Cells” value ([1]; 20 μM sample, after 5-days incubation)?
**A.** The value was 1.01 ± 0.12.

**Q.** And the “Relative Value of Living Cells” value ([1]; 20 μM sample, on 0-day incubation)?
**A.** Its value is 0.98 ± 0.04.

**Q.** And the “inhibiting effect on the proliferation of breast cancer cells (in words)” value ([1]; 20 μM, compared with Control 1)?
**A.** Its value is “cytotoxic effect upon breast cancer cells”.

**Q.** What about the “effect on growth and development of E. coli (in words)” value (E. coli; 5-50 ppm) of the same compound?
**A.** Its value is “high antimicrobial activity”.

**Q.** And the “Number of Bacteria, E. coli” value (E. coli; 5 ppm in standard agar medium, 0 ppm: >3000 (Table 3), 5 (Table 4))?
**A.** The value was 6 CFU/petri dish.

**Q.** And the “Number of Bacteria, E. coli” value (E. coli; 10 ppm in standard agar medium)?
**A.** Its value is 6 CFU/petri dish.

**Q.** And the “Number of Bacteria, E. coli” value (E. coli; 15 ppm in standard agar medium)?
**A.** Its value is 9 CFU/petri dish.

**Q.** And the “Number of Bacteria, E. coli” value (E. coli; 20 ppm in standard agar medium)?
**A.** Its value is 6 CFU/petri dish.

**Q.** And the “Number of Bacteria, E. coli” value (E. coli; 50 ppm in standard agar medium)?
**A.** Its value is 0 CFU/petri dish.

**Q.** And the “effect on growth and development of spore forming bacteria, B. ce (in words)” value (Bacillus cereus (B. ce); 5-50 ppm)?
**A.** The value was “high antimicrobial activity”.

**Q.** And the “Number of Bacteria, B. ce” value (Bacillus cereus (B. ce); 5 ppm in standard agar medium, 0 ppm: 13 (Table 3), 183 (Table 4))?
**A.** The value was 16 CFU/petri dish.

**Q.** And the “Number of Bacteria, B. ce” value (Bacillus cereus (B. ce); 10 ppm in standard agar medium)?
**A.** The value was 0 CFU/petri dish.

**Q.** And the “Number of Bacteria, B. ce” value (Bacillus cereus (B. ce); 15 ppm in standard agar medium)?
**A.** Its value is 0 CFU/petri dish.

**Q.** What about the “Number of Bacteria, B. ce” value (Bacillus cereus (B. ce); 20 ppm in standard agar medium) of the same compound?
**A.** Its value is 0 CFU/petri dish.

**Q.** What about the “Number of Bacteria, B. ce” value (Bacillus cereus (B. ce); 50 ppm in standard agar medium) of the same compound?
**A.** The value was 0 CFU/petri dish.

**Q.** And the “effect on growth and development of S. en (in words)” value ([2]; 5-50 ppm)?
**A.** Its value is “antimicrobial activity”.

**Q.** And the “Number of Bacteria, S. en” value ([2]; 5 ppm in standard agar medium, 0 ppm: >3000 (Table 3), 221 (Table 4))?
**A.** Its value is 249 CFU/petri dish.

**Q.** And the “Number of Bacteria, S. en” value ([2]; 10 ppm in standard agar medium)?
**A.** The value was 199 CFU/petri dish.

**Q.** And the “Number of Bacteria, S. en” value ([2]; 15 ppm in standard agar medium)?
**A.** The value was 225 CFU/petri dish.

**Q.** What about the “Number of Bacteria, S. en” value ([2]; 20 ppm in standard agar medium) of the same compound?
**A.** The value was 132 CFU/petri dish.

**Q.** What about the “Number of Bacteria, S. en” value ([2]; 50 ppm in standard agar medium) of the same compound?
**A.** Its value is 65 CFU/petri dish.

**Q.** What about the “effect on growth and development of Gram-positive bacteria, Sta. (in words)” value ([3]; 5-50 ppm) of the same compound?
**A.** The value was “high antimicrobial activity”.

**Q.** What about the “Number of Bacteria, Sta.” value ([3]; 5 ppm in standard agar medium, 0 ppm: 470 (Table 3), 202 (Table 4)) of the same compound?
**A.** Its value is 26 CFU/petri dish.

**Q.** What about the “Number of Bacteria, Sta.” value ([3]; 10 ppm in standard agar medium) of the same compound?
**A.** The value was 7 CFU/petri dish.

**Q.** And the “Number of Bacteria, Sta.” value ([3]; 15 ppm in standard agar medium)?
**A.** Its value is 10 CFU/petri dish.

**Q.** And the “Number of Bacteria, Sta.” value ([3]; 20 ppm in standard agar medium)?
**A.** The value was 1 CFU/petri dish.

**Q.** And the “Number of Bacteria, Sta.” value ([3]; 50 ppm in standard agar medium)?
**A.** Its value is 0 CFU/petri dish.
